The source of these data is patent US20220160656A1, “INTRANASALLY ADMINISTERED ANTIHISTAMINES AND USES THEREOF” (DBBH, LLC, priority 2019, published 2022).

The nature of data set [1]: in vitro. The conditions noted are these: human; for recovery at 120 min: pH 7.4; for Papp at 120 min: apical dosing.
Description: (§1) EpiAirway tissues, plated in 24-well plates, and accompanying culture medium and assay buffer solutions, were purchased from MatTek Corporation (Ashland, Mass.). According to the EpiAirway AIR-100 Use Protocol provided by MatTek, the tissues were returned to culture immediately upon receipt. In a tissue culture hood, using sterile technique, 1.0 mL of cold medium (AIR-100-ASY) was dispensed into each well of the 6-well plate (n=3) and one tissue insert was transferred to each of the wells. The apical surface of the tissue was exposed to the air (no medium was added to the insert). The tissues were equilibrated overnight at 37° C. in a 5% CO2 incubator. The culture medium was then replaced with fresh, pre-warmed medium until use.
(§2) The unidirectional permeation experiment was conducted according to protocol 18APCIP2 and relevant SOPs of Absorption Systems. Prior to the permeability assay, the culture medium in the plate was aspirated; and ˜1 mL of Dulbecco's phosphate-buffered saline (DPBS) was added to the well to remove any remaining residue of culture medium from the underside of the insert. The tissues were transferred to a 24-well plate with DPBS (750 μL) in each well as receiver, and dosing solution (400 μL) was added to each insert. A 100 μL aliquot was immediately removed as the 0-minute donor sample. Receiver samples (200 μL) were collected at 30, 60, and 120 minutes, replaced with an equal volume of fresh pre-warmed blank buffer at 30 and 60 minutes. The donor side was sampled (100 μL) at 0 and 120 minutes. The assay plate was placed in a humidified CO2 incubator at 37° C. during the assay period.
(§3) After 120 minutes, the tissues were rinsed with DPBS and gently dried with tissue wipes after aspiration of the assay buffer. The insert membranes with tissues attached were carefully removed from the insert apparatus, placed in a tared centrifuge tube, and weighed.
(§4) The apparent permeability coefficient (Papp) and recovery were calculated as follows:
Papp=(dCr/dt)×Vr/(A×Cini) (1)
(§5) Recovery (%)=[((Cr,final×Vr)+(Cd,final×Vd))/(Cini×Vd)]×100 (2)
(§6) Recovery (%)=[((Cr,final×Vr)+(Cd,final×Vd)+(Tissue Accumulation))/(Cini×Vd)]×100 (3)
(§7) where, • dCr/dt is the slope of cumulative receiver concentration vs. time in μM s^−1; • Vr is the volume of the receiver compartment; • Vd is the volume of the donor compartment; • A is the diffusional area of the membrane; • Cini is the donor concentration at 0 minutes in μM; • CD,final is the donor concentration at 120 minutes in μM; • Cr,final is the receiver concentration at 120 minutes in μM.
(§8) With DPBS, pH 7.4 used on both the donor and receiver sides, permeability was initiated with addition of 0.4 mL of dosing solution into the inserts and of 0.75 mL of blank buffer into the wells of the assay plate. The assay was performed for 120 minutes in a humidified incubator at 37° C.
The nature of data set [2]: in vitro. To be noted: pH 7.4.
In data set [3] the test system is EpiAirway tissues. To be noted: EpiAirway tissues after 120 minutes.
Description: as §1, §2, §3, §4
Papp=(dCr/dt)×Vr/(A×Cini) (1)
as §5, §6, §7, §8
In data set [4] the test system is rhinovirus colds. The conditions noted are these: intranasal administration in a phosphate buffer vehicle, patients; cited from earlier work.

The molecule `CC(C)NCC(O)COc1ccc(CC(N)=O)cc1` (stereo not drawn) [Atenolol] came in with a recovery at 120 min in data set [1] of 98.5%.
What is called Papp is a coefficient for how fast a substance crosses the barrier. Regarding `Cn1c(=O)c2c(ncn2C)n(C)c1=O` [Caffeine], the recovery at 120 min in data set [1] stood at 96.9%. The Papp at 120 min in data set [1] (pH 7.4, Papp Average ± SD, EpiAirway tissues, DPBS pH 7.4, diphenhydramine 100 μM, atenolol 100 μM, caffeine 50 μM co-dosed) turned out to be 291 nm/s; in data set [1] (pH 7.4, Papp R1, EpiAirway tissues, DPBS pH 7.4, 120 minutes, 37° C., replicate R1), 309 nm/s; in data set [1] (pH 7.4, Papp R2, EpiAirway tissues, DPBS pH 7.4, replicate R2), 282 nm/s; in data set [1] (pH 7.4, Papp R3, EpiAirway tissues, DPBS pH 7.4, replicate R3), 282 nm/s.
Turning to `CN(C)CCOC(c1ccccc1)c1ccccc1` [Diphenhydramine], the recovery at 120 min, 100 μM in data set [2] was found to be 86.3%. Moreover, the “Tissue Accumulation Average ± SD” value in data set [3] is recorded as 0.212 ± 0.0222 nmol/mg. Moreover, in data set [3] (replicate R1), the “Tissue Accumulation R1” value stood at 0.188 nmol/mg. For the same molecule, in data set [3] (replicate R3), the “Tissue Accumulation R3” value is given as 0.218 nmol/mg. The molecule further yielded a recovery at 120 min in data set [1] of 103%. Besides, the “therapeutic effect in reducing signs and symptoms of rhinovirus colds” value in data set [4] is “no therapeutic effect”.
